Data as given in publication PMC2949283 (The Biochemical journal, 2009).

How the values were obtained:
W86A HuAChE = W86A HuAChE (Homo sapiens, UniProt P22303, W117A); assay: HuAChE inhibition kinetics; format: biochemical; details: W86A HuAChE
Y133A HuAChE = Y133A HuAChE (Homo sapiens, UniProt P22303, Y164A); assay: HuAChE inhibition kinetics; format: biochemical; details: Y133A HuAChE
G122A HuAChE = G122A HuAChE (Homo sapiens, UniProt P22303, G153A); assay: HuAChE inhibition kinetics; format: biochemical
Wild Type HuAChE = Wild Type HuAChE (Homo sapiens, UniProt P22303); assay: HuAChE inhibition kinetics; format: biochemical; details: Wild Type HuAChE
F295A HuAChE = F295A HuAChE (Homo sapiens, UniProt P22303, F326A); assay: HuAChE inhibition kinetics; format: biochemical; details: F295A HuAChE
F295A/F338A/V407F HuAChE = F295A/F338A/V407F HuAChE (Homo sapiens, UniProt P22303, F326A/F369A/V438F); assay: HuAChE inhibition kinetics; format: biochemical; details: F295A/F338A/V407F HuAChE
Y124A HuAChE = Y124A HuAChE (Homo sapiens, UniProt P22303, Y155A); assay: HuAChE inhibition kinetics; format: biochemical
Y133F HuAChE = Y133F HuAChE (Homo sapiens, UniProt P22303, Y164F); assay: HuAChE inhibition kinetics; format: biochemical; details: Y133F HuAChE
F295A/F338A HuAChE = F295A/F338A HuAChE (Homo sapiens, UniProt P22303, F326A/F369A); assay: HuAChE inhibition kinetics; format: biochemical; details: F295A/F338A HuAChE
F338A HuAChE = F338A HuAChE (Homo sapiens, UniProt P22303, F369A); assay: HuAChE inhibition kinetics; format: biochemical; details: F338A HuAChE
E450A HuAChE = E450A HuAChE (Homo sapiens, UniProt P22303, E481A); assay: HuAChE inhibition kinetics; format: biochemical; details: E450A HuAChE
F295L/F297V/Y337A HuAChE = F295L/F297V/Y337A HuAChE (Homo sapiens, UniProt P22303, F326L/F328V/Y368A); assay: HuAChE inhibition kinetics; format: biochemical; details: F295L/F297V/Y337A HuAChE
Y337A HuAChE = Y337A HuAChE (Homo sapiens, UniProt P22303, Y368A); assay: HuAChE inhibition kinetics; format: biochemical; details: Y337A HuAChE
W286A HuAChE = W286A HuAChE (Homo sapiens, UniProt P22303, W317A); assay: HuAChE inhibition kinetics; format: biochemical; details: W286A HuAChE
E202Q HuAChE = E202Q HuAChE (Homo sapiens, UniProt P22303, E233Q); assay: HuAChE inhibition kinetics; format: biochemical; details: E202Q HuAChE
HuBChE-Wild Type = HuBChE-Wild Type (Homo sapiens, UniProt P06276); assay: HuBChE inhibition kinetics; format: biochemical; details: HuBChE-Wild Type
W86F HuAChE = W86F HuAChE (Homo sapiens, UniProt P22303, W117F); assay: HuAChE inhibition kinetics; format: biochemical; details: W86F HuAChE
Y341A HuAChE = Y341A HuAChE (Homo sapiens, UniProt P22303, Y372A); assay: HuAChE inhibition kinetics; format: biochemical; details: Y341A HuAChE
E202A HuAChE = E202A HuAChE (Homo sapiens, UniProt P22303, E233A); assay: HuAChE inhibition kinetics; format: biochemical; details: E202A HuAChE
D74N HuAChE [1] = target: T1, D74N HuAChE (Homo sapiens, UniProt P22303, D105N); assay: HuAChE inhibition kinetics; format: biochemical; details: D74N HuAChE
F297A HuAChE = F297A HuAChE (Homo sapiens, UniProt P22303, F328A); assay: HuAChE inhibition kinetics; format: biochemical; details: F297A HuAChE
[2] = target: Y72N/Y124Q/W286A/ F295L/F297V/Y337A HuAChE (Homo sapiens, UniProt P22303, F326L/F328V/W317A/Y103N/Y155Q/Y368A); assay: HuAChE inhibition kinetics; format: biochemical; details: Y72N/Y124Q/W286A/F295L/F297V/Y337A HuAChE
Y72N/Y124Q/W286A HuAChE = Y72N/Y124Q/W286A HuAChE (Homo sapiens, UniProt P22303, W317A/Y103N/Y155Q); assay: HuAChE inhibition kinetics; format: biochemical
Y337F HuAChE = Y337F HuAChE (Homo sapiens, UniProt P22303, Y368F); assay: HuAChE inhibition kinetics; format: biochemical; details: Y337F HuAChE
D74N HuAChE [3] = target: T1, D74N HuAChE; details: D74N HuAChE vs wild type; cited from earlier work

Chain of F295A/F338A HuAChE (P22303 32-614 F326A/F369A): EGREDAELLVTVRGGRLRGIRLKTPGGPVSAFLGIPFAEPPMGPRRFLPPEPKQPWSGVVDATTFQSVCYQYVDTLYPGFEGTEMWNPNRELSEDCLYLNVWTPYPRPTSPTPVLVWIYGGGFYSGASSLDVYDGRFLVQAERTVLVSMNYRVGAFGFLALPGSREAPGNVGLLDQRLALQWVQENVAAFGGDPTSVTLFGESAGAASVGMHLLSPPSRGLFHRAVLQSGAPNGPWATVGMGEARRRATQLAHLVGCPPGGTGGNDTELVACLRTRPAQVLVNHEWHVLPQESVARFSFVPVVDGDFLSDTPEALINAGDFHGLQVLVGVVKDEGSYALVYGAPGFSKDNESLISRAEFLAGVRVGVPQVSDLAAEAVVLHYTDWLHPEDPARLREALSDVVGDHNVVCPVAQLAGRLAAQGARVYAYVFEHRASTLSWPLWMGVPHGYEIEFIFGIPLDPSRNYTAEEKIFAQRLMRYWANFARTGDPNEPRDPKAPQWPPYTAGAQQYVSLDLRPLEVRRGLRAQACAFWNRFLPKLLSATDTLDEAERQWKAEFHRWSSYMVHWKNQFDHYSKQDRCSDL
Chain of Y124A HuAChE (P22303 32-614 Y155A): as the sequence (P22303 32-614 F326A/F369A) above, with Y124A, A295F, A338F counted along it
Chain of Y72N/Y124Q/W286A HuAChE (P22303 32-614 Y103N/Y155Q/W317A): as the sequence (P22303 32-614 F326A/F369A) above, with Y72N, Y124Q, W286A, A295F, A338F counted along it
Chain of G122A HuAChE (P22303 32-614 G153A): as the sequence (P22303 32-614 F326A/F369A) above, with G122A, A295F, A338F counted along it
T1 sequence (P22303 32-614 D105N): as the sequence (P22303 32-614 F326A/F369A) above, with D74N, A295F, A338F counted along it
Chain of Y72N/Y124Q/W286A/ F295L/F297V/Y337A HuAChE (P22303 32-614 Y103N/Y155Q/W317A/F326L/F328V/Y368A): as the sequence (P22303 32-614 F326A/F369A) above, with Y72N, Y124Q, W286A, A295L, F297V, Y337A, A338F counted along it
Chain of W286A HuAChE (P22303 32-614 W317A): as the sequence (P22303 32-614 F326A/F369A) above, with W286A, A295F, A338F counted along it
Chain of Y337F HuAChE (P22303 32-614 Y368F): as the sequence (P22303 32-614 F326A/F369A) above, with A295F, Y337F, A338F counted along it
Chain of F295A HuAChE (P22303 32-614 F326A): as the sequence (P22303 32-614 F326A/F369A) above, with A338F counted along it
Chain of F338A HuAChE (P22303 32-614 F369A): as the sequence (P22303 32-614 F326A/F369A) above, with A295F counted along it
Chain of E202A HuAChE (P22303 32-614 E233A): as the sequence (P22303 32-614 F326A/F369A) above, with E202A, A295F, A338F counted along it
Chain of Wild Type HuAChE (P22303 32-614): as the sequence (P22303 32-614 F326A/F369A) above, with A295F, A338F counted along it
Chain of W86F HuAChE (P22303 32-614 W117F): as the sequence (P22303 32-614 F326A/F369A) above, with W86F, A295F, A338F counted along it
Chain of E450A HuAChE (P22303 32-614 E481A): as the sequence (P22303 32-614 F326A/F369A) above, with A295F, A338F, E450A counted along it
Chain of F295A/F338A/V407F HuAChE (P22303 32-614 F326A/F369A/V438F): as the sequence (P22303 32-614 F326A/F369A) above, with V407F counted along it
Chain of Y337A HuAChE (P22303 32-614 Y368A): as the sequence (P22303 32-614 F326A/F369A) above, with A295F, Y337A, A338F counted along it
Chain of W86A HuAChE (P22303 32-614 W117A): as the sequence (P22303 32-614 F326A/F369A) above, with W86A, A295F, A338F counted along it
Chain of F295L/F297V/Y337A HuAChE (P22303 32-614 F326L/F328V/Y368A): as the sequence (P22303 32-614 F326A/F369A) above, with A295L, F297V, Y337A, A338F counted along it
Chain of E202Q HuAChE (P22303 32-614 E233Q): as the sequence (P22303 32-614 F326A/F369A) above, with E202Q, A295F, A338F counted along it
Chain of Y133F HuAChE (P22303 32-614 Y164F): as the sequence (P22303 32-614 F326A/F369A) above, with Y133F, A295F, A338F counted along it
Chain of Y341A HuAChE (P22303 32-614 Y372A): as the sequence (P22303 32-614 F326A/F369A) above, with A295F, A338F, Y341A counted along it
Chain of Y133A HuAChE (P22303 32-614 Y164A): as the sequence (P22303 32-614 F326A/F369A) above, with Y133A, A295F, A338F counted along it
Chain of HuBChE-Wild Type (P06276 29-602): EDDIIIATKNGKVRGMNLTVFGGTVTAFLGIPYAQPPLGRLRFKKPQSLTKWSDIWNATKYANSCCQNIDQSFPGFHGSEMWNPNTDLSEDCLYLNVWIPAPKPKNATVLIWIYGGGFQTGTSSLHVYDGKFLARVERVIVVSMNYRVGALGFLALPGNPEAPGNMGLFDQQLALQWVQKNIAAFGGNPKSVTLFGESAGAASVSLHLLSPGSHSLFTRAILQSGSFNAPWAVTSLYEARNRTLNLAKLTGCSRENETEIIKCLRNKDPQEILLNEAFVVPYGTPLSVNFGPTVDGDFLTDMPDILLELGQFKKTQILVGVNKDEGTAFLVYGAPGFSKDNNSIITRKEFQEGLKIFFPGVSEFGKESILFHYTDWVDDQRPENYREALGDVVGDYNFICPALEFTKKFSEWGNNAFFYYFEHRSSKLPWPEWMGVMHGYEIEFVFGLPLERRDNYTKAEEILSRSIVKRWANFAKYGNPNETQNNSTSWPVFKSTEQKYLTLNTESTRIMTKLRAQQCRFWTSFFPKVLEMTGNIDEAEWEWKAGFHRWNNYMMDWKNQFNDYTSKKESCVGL
Chain of F297A HuAChE (P22303 32-614 F328A): as the sequence (P22303 32-614 F326A/F369A) above, with A295F, F297A, A338F counted along it

Structure (SMILES): CN(C)C(=O)Oc1ccc[n+](C)c1 [Pyridostigmine, pyridostigmine bromide]
- k2, carbamylation rate constant (W86A HuAChE): 0.68 ± 0.2 min⁻¹
- k2, carbamylation rate constant (Y133A HuAChE): 1.80 ± 0.3 min⁻¹
- k2, carbamylation rate constant (G122A HuAChE): 0.12 ± 0.02 min⁻¹
- ki, bimolecular rate constant of carbamylation (G122A HuAChE): 0.76±0.2 × 10^−4 M^−1min^−1
- k2, carbamylation rate constant (Wild Type HuAChE): 0.77 ± 0.3 min⁻¹
- k2, carbamylation rate constant (F295A HuAChE): 0.17 ± 0.02 min⁻¹
- k2, carbamylation rate constant (F295A/F338A/V407F HuAChE): 0.5 ± 0.15 min⁻¹
- k2, carbamylation rate constant (Y124A HuAChE): 0.1 ± 0.01 min⁻¹
- ki, bimolecular rate constant of carbamylation (Y124A HuAChE): 13.8±0.4 × 10^−4 M^−1min^−1
- k2, carbamylation rate constant (Y133F HuAChE): 0.20 ± 0.04 min⁻¹
- k2, carbamylation rate constant (F295A/F338A HuAChE): 0.5 ± 0.4 min⁻¹
- ki, bimolecular rate constant of carbamylation (F295A/F338A HuAChE): 0.8±0.5 × 10^−4 M^−1min^−1
- k2, carbamylation rate constant (F338A HuAChE): 1.20 ± 0.4 min⁻¹
- k2, carbamylation rate constant (E450A HuAChE): 0.15 ± 0.02 min⁻¹
- k2, carbamylation rate constant (F295L/F297V/Y337A HuAChE): 0.55 ± 0.09 min⁻¹
- k2, carbamylation rate constant (Y337A HuAChE): 0.80 ± 0.1 min⁻¹
- k2, carbamylation rate constant (W286A HuAChE): 1.8 ± 0.5 min⁻¹
- ki, bimolecular rate constant of carbamylation (W286A HuAChE): 14.0±0.6 × 10^−4 M^−1min^−1
- k2, carbamylation rate constant (E202Q HuAChE): 1.00 ± 0.2 min⁻¹
- k2, carbamylation rate constant (HuBChE-Wild Type): 0.30 ± 0.03 min⁻¹
- k2, carbamylation rate constant (W86F HuAChE): 0.65 ± 0.2 min⁻¹
- k2, carbamylation rate constant (Y341A HuAChE): 1.0 ± 0.1 min⁻¹
- k2, carbamylation rate constant (E202A HuAChE): 0.20 ± 0.05 min⁻¹
- k2, carbamylation rate constant (D74N HuAChE [1]): 1.0 ± 0.1 min⁻¹
- k2, carbamylation rate constant (F297A HuAChE): 0.64 ± 0.1 min⁻¹
- k2, carbamylation rate constant [2]: 0.40 ± 0.1 min⁻¹
- ki, bimolecular rate constant of carbamylation [2]: 0.6±0.1 × 10^−4 M^−1min^−1
- k2, carbamylation rate constant (Y72N/Y124Q/W286A HuAChE): 0.80 ± 0.07 min⁻¹
- ki, bimolecular rate constant of carbamylation (Y72N/Y124Q/W286A HuAChE): 9.3±0.8 × 10^−4 M^−1min^−1
- k2, carbamylation rate constant (Y337F HuAChE): 0.68 ± 0.2 min⁻¹

Structure (SMILES): CC[N+](C)(C)c1cccc(O)c1 [edrophonium]
- increase of the dissociation constant (D74N HuAChE [3]): 5 fold
